# Results reported in paper PMC12294558, “New 1,2,4-Triazole Derivatives with a N-Mannich Base Structure Based on a 4,6-Dimethylpyridine Scaffold as Anticancer Agents: Design, Synthesis, Biological Evaluation, and Molecular Modeling” (International Journal of Molecular Sciences, 2025).
# Assays:
# [1] = target: T1, P-glycoprotein (HT-29 cells) (Homo sapiens, UniProt P08183); test: Rhodamine-123 accumulation assay in HT-29; format: cell-based; conditions: 50 µM, 24 h; versus untreated control
# T1 construct: intracellular accumulation of rhodamine 123 (a fluorescent P-gp substrate analog) in P-gp-expressing cell lines (HT-29, LoVo, and LoVo/Dx); endogenous in cells; host or cells: HT-29, LoVo (ECACC via Sigma-Aldrich); LoVo/Dx (doxorubicin-selected subline of LoVo)
# T1 sequence (P08183 whole entry): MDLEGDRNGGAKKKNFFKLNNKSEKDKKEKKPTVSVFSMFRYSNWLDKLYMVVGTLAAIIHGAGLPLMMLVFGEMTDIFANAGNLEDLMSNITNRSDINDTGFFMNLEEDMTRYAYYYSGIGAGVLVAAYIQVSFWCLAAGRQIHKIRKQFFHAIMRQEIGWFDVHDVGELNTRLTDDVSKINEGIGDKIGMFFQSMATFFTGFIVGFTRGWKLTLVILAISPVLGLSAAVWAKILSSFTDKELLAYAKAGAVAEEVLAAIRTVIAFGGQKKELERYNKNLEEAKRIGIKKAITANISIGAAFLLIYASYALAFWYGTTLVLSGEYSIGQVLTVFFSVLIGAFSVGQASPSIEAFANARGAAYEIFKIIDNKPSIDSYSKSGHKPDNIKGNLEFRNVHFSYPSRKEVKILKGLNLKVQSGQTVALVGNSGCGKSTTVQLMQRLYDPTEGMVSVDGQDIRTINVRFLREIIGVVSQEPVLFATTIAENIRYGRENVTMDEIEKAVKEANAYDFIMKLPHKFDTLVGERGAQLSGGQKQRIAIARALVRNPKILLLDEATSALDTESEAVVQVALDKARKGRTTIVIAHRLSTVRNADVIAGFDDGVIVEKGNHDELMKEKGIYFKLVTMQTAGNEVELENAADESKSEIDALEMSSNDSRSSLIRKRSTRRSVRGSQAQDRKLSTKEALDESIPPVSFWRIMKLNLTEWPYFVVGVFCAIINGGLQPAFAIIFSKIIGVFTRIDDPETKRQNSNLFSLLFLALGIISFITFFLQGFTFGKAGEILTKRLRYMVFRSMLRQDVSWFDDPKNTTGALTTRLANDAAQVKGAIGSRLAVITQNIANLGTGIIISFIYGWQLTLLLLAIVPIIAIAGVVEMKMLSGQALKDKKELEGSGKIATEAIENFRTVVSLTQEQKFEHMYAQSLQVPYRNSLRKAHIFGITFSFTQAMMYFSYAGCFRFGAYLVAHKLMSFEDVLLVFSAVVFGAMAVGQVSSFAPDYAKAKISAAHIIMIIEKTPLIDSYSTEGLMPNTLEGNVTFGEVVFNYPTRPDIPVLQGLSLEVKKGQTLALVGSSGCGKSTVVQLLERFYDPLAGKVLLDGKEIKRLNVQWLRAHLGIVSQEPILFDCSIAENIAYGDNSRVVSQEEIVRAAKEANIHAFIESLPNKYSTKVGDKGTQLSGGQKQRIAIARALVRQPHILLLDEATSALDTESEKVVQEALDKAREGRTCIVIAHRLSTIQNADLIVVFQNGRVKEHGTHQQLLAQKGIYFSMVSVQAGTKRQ
# Description: This test measured the intracellular accumulation of rhodamine 123 (a fluorescent P-gp substrate analog) in P-gp-expressing cell lines (HT-29, LoVo, and LoVo/Dx). Following accumulation and efflux phases, the fluorescence of rhodamine 123 (Rh-123) was quantified using spectrofluorimetry. The results are illustrated in Figure 3. Verapamil, a calcium channel blocker, served as a positive control for P-gp inhibition due to its well-established ability to inhibit P-gp activity. Verapamil binds to P-gp, inhibiting its function, which increases the intracellular concentration of chemotherapeutic drugs and other P-gp substrates.
# The activity was measured for cells treated with a 50 µM concentration of the compounds and drugs in the recommended media for each cell line (without FBS) in a volume of 100 µL for 24 h. In this test, verapamil served as the control. After the incubation period, a 10 mM Rhodamine-123 (Rh-123) solution was prepared in a 1:1 DMSO mixture. […] Fluorescence was measured at 485 nm excitation and 538 nm emission using a Biotek Synergy H1 microplate reader (Agilent Technologies, Inc., Santa Clara, CA, USA). […]
# Results are expressed as the mean ± SD (standard deviation) relative to the respective control (E/E0), where E represents the mean result for the measured sample, and E0 represents the mean result for the control. […]
# EPG cells = test: MTT viability assay, gastric cancer cells; format: cell-based, human; conditions: for SI, EPG: CC50 CCD 841 CoTr / CC50 EPG; for CC50: Homo sapiens, MTT, 24 h, read-out: CC50 ± SD, EPG
# Experimental: The cytotoxic effects of ten newly synthesized N-Mannich bases were assessed on the normal human intestinal epithelium (CCD 841 CoTr) and cancer cell lines: gastric cancer (EPG) and four colorectal cancer lines (Caco-2, LoVo, LoVo/Dx, and HT-29). Cell viability was evaluated using the MTT assay in accordance with Annex C of ISO 10993-5 [33].
# The biological activity of the newly synthesized compounds was assessed in the context of anticancer activity. For this purpose, several gastrointestinal cancer lines were selected: gastric cancer (EPG 257, which belongs to the collection of the Laboratory of Cell Culture and Advanced Therapy at the University of Environmental and Life Sciences in Wrocław), and four colorectal cancer cell lines (LoVo, Caco-2, and HT-29) were obtained from the European Collection of Authenticated Cell Cultures (ECACC) and were delivered by Sigma-Aldrich, a certified distributor for the biobank. Additionally, LoVo cells were used to develop a doxorubicin-resistant subline, referred to as LoVo/Dx. Resistance was induced through gradual adaptation to increasing concentrations of doxorubicin, starting from 0.1 µg/mL and incrementally raised to 0.8 µg/mL. After reaching the maximum concentration, the cells were maintained in a medium containing 0.4 µg/mL doxorubicin for a period of three months to stabilize the resistant phenotype. […] The resulting LoVo/Dx subline, resistant to doxorubicin, was cultured in DMEM/F-12 medium and utilized in assays evaluating the effectiveness of novel compounds against multidrug-resistant cancer cells. […] The non-cancerous cell control was normal colonic epithelial cells (CCD 841 CoTr from American Type Culture Collection, (ATCC, Manassas, VA, USA)). Cell cultures were performed under standard conditions (5% CO2, 95% humidity, and 37 °C). Each cell line was cultured in the recommended medium: (1) HT-29 in McCoy’s 5a, (2) Caco-2 in Minimal Essential Medium (MEM, Biological Industries, Beit Haemek, Israel), (3) CCD 841 CoTr in Dulbecco’s Modified Eagle Medium (DMEM, Biological Industries, Beit Haemek, Israel), (4) LoVo in Dulbecco’s Modified Eagle Medium/F-12 (DMEM/F-12; Biological Industries, Beit Haemek, Israel), (5) LoVo/Dx in DMEM/F-12, and (6) EPG in DMEM. Culture media were supplemented with 10% fetal bovine serum (FBS, Sigma-Aldrich, Darmstadt, Germany) and antibiotics (penicillin and streptomycin; Sigma-Aldrich, Darmstadt, Germany). For assays, trypsinized (TrypLE solution, Thermo Fisher Scientific, Waltham, MA, USA) cells were seeded at appropriate densities of 10,000 cells per well for MTT and determination of apoptotic and necrotic cell numbers; 30,000 cells per well for the rhodamine accumulation assay; and 500,000 cells per well for ELISA tests.
# The cytotoxicity of the compounds and drugs used as controls was assessed using the MTT assay. The assay also included a DMSO control. After seeding and allowing the cells to adhere overnight, they were treated with the tested compounds and drugs for another 24 h. After this time, the supernatant was removed, and a 1 mg/mL MTT solution was added for 2 h in 5% CO2, 95% humidity, at 37 °C. The supernatant was then removed, and isopropanol was added to dissolve the purple crystals over 30 min by shaking. Absorbance was measured at 570 nm in a Multiskan GO microplate reader (Thermo Fisher Scientific; Waltham, MA, USA). All reagents used for the assays were purchased from Sigma-Aldrich, Darmstadt, Germany.
# Biological assays were performed in three independent replicates, each involving four samples. ELISA determinations were repeated three times.
# HT-29 cells = test: Annexin-V/propidium iodide apoptosis and necrosis detection; format: cell-based, human; conditions: HT-29, 1 µM, 24 h
# Experimental: To evaluate the impact of new compounds on apoptosis induction, an annexin-V/propidium iodide staining assay was conducted on HT-29 cells, with doxorubicin serving as the positive control (Figure 4). The tested compounds 5 and 6, at a concentration of 1 µM, increased the number of cells in the apoptosis phase, although to a lesser extent than doxorubicin.
# The assessment of cell death—apoptosis was performed after 24 h of incubation of HT-29 cells with a concentration of 1 µM of compounds 5 and 6 and doxorubicin. Fluorescein-conjugated annexin V in PBS with Mg^2+ and Ca^2+ ions (Thermo Fisher Scientific, Waltham, MA, USA) was then used. To ensure that all cells (both live and dead) were counted, 10 µM Hoechst (Sigma-Aldrich, Darmstadt, Germany) was added to stain cell nuclei. The culture was then incubated for 20 min at 37 °C. Apoptosis analysis was performed under a fluorescence microscope (EVOS FL, Thermo Fisher Scientific, Waltham, MA, USA), using 10× magnification, in triplicate for each compound. The open-source ImageJ platform with the Fiji plugin [57] was used to analyze the number of all cells, as well as those in the apoptotic and necrotic phases.
# The fluorescence signal was interpreted as follows: green fluorescence indicated apoptotic cells (annexin V staining), red fluorescence corresponded to necrotic cells, and blue fluorescence (Hoechst staining) marked all cell nuclei.
SMILES,"Increase of Rh-123 accumulation, HT-29 [1] [fold]","SI, EPG (EPG cells)",CC50 (EPG cells) [µM],Increase in apoptotic cells compared to untreated cells (HT-29 cells) [fold],Number of necrotic cells (HT-29 cells)
"Cc1cc(C)c(C(=O)NCc2nn(CN3CCN(c4cccc(Cl)c4)CC3)c(=S)n2-c2ccccc2)c(S)n1 [Compound 5, 4,6-dimethyl-N-[(4-phenyl-5-thioxo-2-{[4-(3-chlorophenyl)piperazinyl]methyl}-4,5-dihydro-1H-1,2,4-triazol-3-yl)methyl]-2-sulfanylpyridine-3-carboxamide]",1.23,2.66,83 ± 4.6,> 3.5,significant rise
Cc1ccc(N2CCN(Cn3nc(CNC(=O)c4c(C)cc(C)nc4S)n(-c4ccccc4)c3=S)CC2)cc1 [Compound 6],1.46,6.72,57.7 ± 5.4,~5,
